Measured values as given in patent US11149047B2, “Aryl imidazoles for treatment of cancer” (Aptose Biosciences Inc., priority 2017, dated 2021).

Experiments:
[1] = tested on: H3K27ac at the MYC promoter in MV4-11 cells; experiment: ChIP-qPCR for H3K27ac; type: cell-based; conditions: 500 nmol/L
Procedure: MV4-11 cells were treated with vehicle DMSO or 500 nmol/L COMPOUND I for 2, 6, or 24 hours and then crosslinked with 1% formaldehyde. Chromatin was extracted by sonication and then incubated with H3K27ac (Active Motif #39133) antibody overnight. The antibody:DNA complexes were isolated with Protein G beads (Invitrogen Dynabeads catalog #10004D) and analyzed by qPCR with primers specific to the MYC promoter (Table 7). H3K27ac enrichment was calculated as fold over input DNA control.
Regulation of MYC expression is a complex process that involves MYC transcription, mRNA stability, and protein turnover. ChIP-qPCR analysis for H3K27ac, a well-established marker of active chromatin, was performed to assess transcriptional competency of the MYC gene promoter after treatment with COMPOUND I (FIG. 19D). […] To determine whether COMPOUND I affected MYC mRNA stability, an RNA decay assay was performed on EOL-1 cells.

[2] = tested on: phospho-ATM, phospho-γH2AX, PARP cleavage in Raji/COMPOUND IR cells; experiment: Western blot of phospho-ATM, γH2AX and cleaved PARP; type: cell-based, human; conditions: 0.5 μM, 24 h
Procedure: Only when the Raji/COMPOUND IR cells were treated with at least 3 times as much COMPOUND I did the intracellular content of Fe(COMPOUND I)3 finally reach a level similar to that in the sensitive cells (FIG. 4D).

Raji/COMPOUND IR cells = experiment: Cellular pharmacology: intracellular accumulation and efflux by LC-MS/MS; type: in vitro ADME, human
Procedure: (§1) Cells exposed to COMPOUND I or Fe(COMPOUND I)3 were homogenized in acetonitrile containing 5 ng of a deuterated COMPOUND I standard. Samples were analyzed at the UCSD Molecular Mass Spectrometry Facility employing an Agilent 1260 liquid chromatograph (LC) system coupled with a Thermo LCQdeca mass spectrometer using positive ion mode electrospray ionization (ESI) as the ion source. The ESI ion source voltage was set at 5 kV, with sheath gas flow rate of 80 units, auxiliary gas flow rate of 20 units, and capillary temperature of 250° C., respectively. A Phenomenex Kinetex Biphenyl column (ID 2.1 mm×length 50 mm, particle size 2.6 μm) was utilized for LC separation using water with 0.1% formic acid as the mobile phase A and acetonitrile with 0.1% formic acid as the mobile phase B. The LC flow rate was set at 0.30 mL/min. The LC gradient increased from 5% mobile phase B to 95% mobile phase B in 10 minutes, held at 95% B for 2 minutes, returned to 5% B in 1 minute, and then held at 5% B for 6 minutes. […] Selected reaction monitoring (SRM) mode was used to acquire the m/z 353 and m/z 359 fragmental peaks. The SRM peak area ratio (COMPOUND I/COMPOUND I-d6) related to the amount of spiked COMPOUND I-d6 was used for the quantification of COMPOUND I and Fe(COMPOUND I)3 in the samples. The same column, gradient and flow rate were used for detection of Fe(COMPOUND I)3 which was detected using an Agilent 1100 HPLC and Orbitrap XL (Thermo) mass spectrometer employing a Thermo IonMax ESI interface. The Fe(COMPOUND I)3 eluted around 11.5 minutes with these conditions. A 10:1 flow split was used for the eluent flow rate of 0.3 mL/min, so that approximately 0.030 mL/min was introduced into the ESI after the split. […]
Resistance in the Raji/COMPOUND IR cells may be due to alterations in influx or efflux, intracellular detoxification or a change in the primary target of the drug. The intracellular accumulation of both native COMPOUND I and the Fe(COMPOUND I)3 in Raji and Raji/COMPOUND IR cells incubated with either native COMPOUND I or the Fe(COMPOUND I)3 complex was monitored.

MV4-11 cells = experiment: Flow cytometry cell-cycle analysis; type: cell-based; conditions: 1 μmol/L, 24-hour exposure
Procedure: Cells were treated as described above. To determine apoptosis, cells were stained with FITC-Annexin V and propidium iodide (PI; BD Pharmingen, catalog #556570) and then analyzed on BD Accuri C6 flow cytometer. To measure DNA synthesis and phases of cell cycle, treated cells were stained with 5-ethynyl-2′-deoxyuridine (Edu) Alexa Fluor 488 (Thermo Fisher Scientific, catalog #C10425) and PI (PI/RNase A staining solution, BD Biosciences, catalog #550825). The dead cells were excluded from analysis by using Live/Dead Fixable Far Red Dead Cell Stain Kit (Thermo Fisher Scientific, catalog #L34973). Staining was performed as per the manufacturers' instructions.
Previous studies reported upregulation of KLF4 and CDKN1A expression as a potential mechanism of APT0-COMPOUND I activity in tumors. […] The upregulation of CDKN1A mRNA increased with duration of exposure in all AML cell lines tested (FIGS. 15D and 15E). At later time points, CDKN1A expression began to decrease, likely due to increasing cell death. Induction of CDKN1A expression is typically associated with a subsequent G0-G1, cell-cycle arrest, which was observed following COMPOUND I treatment of solid tumor lines.

[3] = Stability / complex formation in culture medium and on storage; type: physicochemical; conditions: COMPOUND I incubated with complete tissue culture medium
Procedure: Five molar equivalents of ferrous ion as FeSO4 in a concentrated water stock was added to COMPOUND I in ethanol which produced a deep red precipitate that was subsequently dissolved in DMSO and characterized by HPLC and mass spectrometry. Fe(COMPOUND I)3 was >95% pure and stable in the complete RPMI-1640 media for at least 5 days.

Raji cells = experiment: Cellular pharmacology: intracellular accumulation and efflux by LC-MS/MS; type: in vitro ADME, human
Procedure: as §1
For this reason, Raji Burkitt's lymphoma cells were selected for study of the cellular pharmacology of COMPOUND I. The intracellular accumulation of COMPOUND I in the Raji cells was quantified by liquid chromatography tandem mass spectroscopy (LC-MS/MS). […]

Question: Which “earliest time a decrease in H3K27ac at the MYC promoter was observed” value [1] does the source give for Cc1[nH]c2ccc(F)cc2c1-c1nc2c3cccnc3c3ncccc3c2[nH]1 [COMPOUND I, 2-(5-fluoro-2-methyl-1H-indol-3-yl)-1H-imidazo[4,5-f][1,10]phenanthroline] here?
Answer: 2 h

Question: What about the “phospho-ATM, phospho-γH2AX, PARP cleavage” value [2] of the same compound?
Answer: no increase in phospho-ATM or phospho-γH2AX, and no detectable PARP cleavage

Question: And the “rate of accumulation in Raji/COMPOUND IR vs Raji cells” value (Raji/COMPOUND IR cells; 0.5 μM, FIG. 6A, 6B)?
Answer: severely reduced

Question: What about the “Rate of efflux over first 2 hours” value (Raji/COMPOUND IR cells; Raji/COMPOUND IR cells, mean ± SEM, n = 6) of the same compound?
Answer: −0.26 ± 0.025 log fmole/10^7 cells/h

Question: What about the “difference in efflux over first 2 h between Raji and Raji/COMPOUND IR” value (Raji/COMPOUND IR cells; after loading of the cells) of the same compound?
Answer: no apparent difference in the efflux

Question: What about the G0-G1 cell-cycle arrest (MV4-11 cells) of the same compound?
Answer: all live cells had arrested in G0-G1

Question: What about the “extracellular Fe(COMPOUND I)3 formation” value [3] of the same compound?
Answer: no extracellular Fe(COMPOUND I)3 was detected

Question: What about the “time at which cellular content approaches steady-state” value (Raji cells; Raji cells, FIG. 6A) of the same compound?
Answer: ~6 h

Question: What about the “Rate of efflux over first 2 hours” value (Raji cells; Raji cells, mean ± SEM, n = 6) of the same compound?
Answer: −0.19 ± 0.025 log fmole/10^7 cells/h

Question: And the “intracellular Zn chelate” value (Raji cells; cells exposed to COMPOUND I)?
Answer: a Zn chelate was not detectable
